Assay results: patent US8889704B2 (Array BioPharma Inc., priority 2011, dated 2014)
pIC50: −log10 of the molar value. Structures can show the parent of a compound that is named as a salt.

Legend:
Type in all cases: biochemical
recombinant rat PIM-3 = recombinant rat PIM-3 (Rattus norvegicus, UniProt O70444); assay: PIM-3 Assay (as Example A); details: averaged IC50; 30 μM ATP, 3.75 μM PIM2tide, 0.5 nM PIM-3
Summary of the method: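 Recombinant rat PIM-3 (0.5 nM) with 3.75 μM PIM2tide and 30 μM [γ-33P]ATP in MOPS pH 7.4 buffer, 60 min at 22 °C; labelled peptide captured on phosphocellulose filters and counted by scintillation. 10-point curve (top dose 10 μM, 2% DMSO); IC50 from 4-parameter fit of percent of control.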

[1] = target: T1, GST-tagged recombinant full-length human Pim-2 (Homo sapiens, UniProt Q9P1W9); assay: PIM-2 Assay (as Example A); details: averaged IC50; 4 μM ATP, 1.0 μM PIM2tide, 1.5 nM Pim-2
T1 construct: GST-tagged recombinant full-length human Pim-2; GST
Summary of the method: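 Radiometric filter-binding assay: GST-tagged full-length human Pim-2 (1.5 nM) phosphorylates 1.0 μM PIM2tide with 4 μM [γ-33P]ATP for 60 min at 22 °C in pH 7.4 MOPS buffer, 2% DMSO. 10-point 3-fold dilutions from 10 μM top dose; IC50 from 4-parameter fit of percent of control.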

PIM-1 = PIM-1 (Homo sapiens, UniProt P11309); assay: Enzyme PIM-1 Assay ([33P]ATP incorporation into PIM2tide, filter plate); details: averaged IC50; 35 μM ATP, 7.5 μM PIM2tide, 0.25 nM PIM-1, 60 min at 22° C.
Summary of the method: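 Radiometric assay: 0.25 nM PIM-1 phosphorylates 7.5 μM PIM2tide with 35 μM [γ-33P]ATP in 20 mM MOPS pH 7.4, 10 mM MgCl2, 1 mM DTT, 0.005% Tween-20, 60 min at 22 °C. Product captured on P81 filters, scintillation counted; 10-point 3-fold curve from 10 μM top, 2% DMSO, IC50 by 4-parameter logistic fit of POC.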

T1 sequence (Q9P1W9 whole entry): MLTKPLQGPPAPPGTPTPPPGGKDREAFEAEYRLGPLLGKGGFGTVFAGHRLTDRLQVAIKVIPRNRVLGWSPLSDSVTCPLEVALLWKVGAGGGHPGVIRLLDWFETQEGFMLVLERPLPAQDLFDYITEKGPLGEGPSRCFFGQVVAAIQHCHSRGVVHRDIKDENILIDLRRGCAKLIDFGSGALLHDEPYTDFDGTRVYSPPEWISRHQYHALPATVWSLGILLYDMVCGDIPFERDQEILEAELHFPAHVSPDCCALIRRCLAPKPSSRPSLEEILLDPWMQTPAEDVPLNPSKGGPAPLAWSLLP
Sequence of PIM-1 (P11309 whole entry, species assumed): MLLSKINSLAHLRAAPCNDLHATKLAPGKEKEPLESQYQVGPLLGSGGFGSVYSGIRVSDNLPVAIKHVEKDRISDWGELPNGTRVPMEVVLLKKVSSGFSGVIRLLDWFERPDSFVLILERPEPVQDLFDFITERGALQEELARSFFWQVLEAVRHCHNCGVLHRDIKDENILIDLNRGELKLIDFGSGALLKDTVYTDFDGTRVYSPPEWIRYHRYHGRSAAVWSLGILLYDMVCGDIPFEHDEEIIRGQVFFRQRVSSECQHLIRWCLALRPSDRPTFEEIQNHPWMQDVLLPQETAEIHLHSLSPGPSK

pIC50 (recombinant rat PIM-3) | pIC50 [1] | pIC50 (PIM-1) | Compound
9.40 | 6.68 | 9.68 | COCCOc1ccc2ccc(-c3nnc4ccc([C@@H](N5CC[C@H](N)C5)C(F)(F)F)cn34)nc2c1C [Example 117, (S)-1-((R)-2,2,2-trifluoro-1-(3-(7-(2-methoxyethoxy)-8-methylquinolin-2-yl)-[1,2,4]triazolo[4,3-a]pyridin-6-yl)ethyl)pyrrolidin-3-amine hydrochloride]
9.10 | 7.14 | 9.96 | COCC(C)Oc1cccc2ccc(-c3nnc4ccc([C@@H](N5CC[C@H](N)C5)C(F)(F)F)cn34)nc12 (stereo partly drawn) [Example 118, (3S)-1-((1R)-2,2,2-trifluoro-1-(3-(8-(1-methoxypropan-2-yloxy)quinolin-2-yl)-[1,2,4]triazolo[4,3-a]pyridin-6-yl)ethyl)pyrrolidin-3-amine hydrochloride]
9.05 | 7.64 | 9.68 | CC(C)Oc1cc2nc(-c3nnc4ccc([C@@H](N5CC[C@H](N)C5)C(F)(F)F)cn34)ccc2cc1F [Example 119, (S)-1-((R)-2,2,2-trifluoro-1-(3-(6-fluoro-7-isopropoxyquinolin-2-yl)-[1,2,4]triazolo[4,3-a]pyridin-6-yl)ethyl)pyrrolidin-3-amine hydrochloride]
8.52 | < 7.00 | 9.33 | COCCOc1cc2nc(-c3nnc4ccc([C@@H](N5CC[C@H](N)C5)C(F)(F)F)cn34)ccc2cc1F [Example 120, (S)-1-((R)-2,2,2-trifluoro-1-(3-(6-fluoro-7-(2-methoxyethoxy)quinolin-2-yl)-[1,2,4]triazolo[4,3-a]pyridin-6-yl)ethyl)pyrrolidin-3-amine hydrochloride]
9.70 | 8.06 | 9.89 | CC(C)(CO)c1cc(F)cc2ccc(-c3nnc4ccc([C@@H](N5CC[C@H](N)C5)C(F)(F)F)cn34)nc12 [Example 121, 2-(2-(6-((R)-1-((S)-3-aminopyrrolidin-1-yl)-2,2,2-trifluoroethyl)-[1,2,4]triazolo[4,3-a]pyridin-3-yl)-6-fluoroquinolin-8-yl)-2-methylpropan-1-ol dihydrochloride]
9.15 | < 7.00 | 9.70 | CC(=O)OCCOc1cc2nc(-c3nnc4ccc([C@@H](N5CC[C@H](N)C5)C(F)(F)F)cn34)ccc2cc1F [Example 122, 2-(2-(6-((R)-1-((S)-3-aminopyrrolidin-1-yl)-2,2,2-trifluoroethyl)-[1,2,4]triazolo[4,3-a]pyridin-3-yl)-6-fluoroquinolin-7-yloxy)ethyl acetate hydrochloride]
9.40 | 7.14 | 9.70 | N[C@H]1CCN([C@H](c2ccc3nnc(-c4ccc5cc(F)c(OCCO)cc5n4)n3c2)C(F)(F)F)C1 [Example 123, 2-(2-(6-((R)-1-((S)-3-aminopyrrolidin-1-yl)-2,2,2-trifluoroethyl)-[1,2,4]triazolo[4,3-a]pyridin-3-yl)-6-fluoroquinolin-7-yloxy)ethanol hydrochloride]
9.15 | < 7.00 | 9.68 | COc1ccc2ccc(-c3nnc4ccc([C@@H](N5CC[C@H](N)C5)C(F)(F)F)cn34)nc2c1C [Example 124, (S)-1-((R)-2,2,2-trifluoro-1-(3-(7-methoxy-8-methylquinolin-2-yl)-[1,2,4]triazolo[4,3-a]pyridin-6-yl)ethyl)pyrrolidin-3-amine hydrochloride]
9.40 | 8.21 | 9.96 | N[C@H]1CCN([C@H](c2ccc3nnc(-c4ccc5cc(F)cc(C6(CO)CC6)c5n4)n3c2)C(F)(F)F)C1 [Example 125, (1-(2-(6-((R)-1-((S)-3-aminopyrrolidin-1-yl)-2,2,2-trifluoroethyl)-[1,2,4]triazolo[4,3-a]pyridin-3-yl)-6-fluoroquinolin-8-yl)cyclopropyl)methanol dihydrochloride]
8.72 | < 7.00 | 9.55 | OCC1(c2cc(F)cc3ccc(-c4nnc5ccc([C@@H](N6CC[C@H](O)C6)C(F)(F)F)cn45)nc23)CC1 [Example 126, (S)-1-((R)-2,2,2-trifluoro-1-(3-(6-fluoro-8-(1-(hydroxymethyl)cyclopropyl)quinolin-2-yl)-[1,2,4]triazolo[4,3-a]pyridin-6-yl)ethyl)pyrrolidin-3-ol hydrochloride]
7.96 | < 7.00 | 8.48 | COc1cc(C)cc2ccc(-c3nnc4ccc([C@@H](N5CC[C@H](N)C5)C(F)(F)F)cn34)nc12 [Example 127, (S)-1-((R)-2,2,2-trifluoro-1-(3-(8-methoxy-6-methylquinolin-2-yl)-[1,2,4]triazolo[4,3-a]pyridin-6-yl)ethyl)pyrrolidin-3-amine hydrochloride]
9.15 | < 7.00 | 9.24 | Cc1cc(OC(C)C)c2nc(-c3nnc4ccc([C@@H](N5CC[C@H](N)C5)C(F)(F)F)cn34)ccc2c1 [Example 128, (S)-1-((R)-2,2,2-trifluoro-1-(3-(8-isopropoxy-6-methylquinolin-2-yl)-[1,2,4]triazolo[4,3-a]pyridin-6-yl)ethyl)pyrrolidin-3-amine hydrochloride]
8.11 | 6.21 | 8.80 | CC(C)Oc1cccc2ccc(-c3nnc4ccc([C@@H](N5C[C@@H](N)[C@@H](O)C5)C(F)(F)F)cn34)nc12 [Example 129, (3S,4R)-4-amino-1-((R)-2,2,2-trifluoro-1-(3-(8-isopropoxyquinolin-2-yl)-[1,2,4]triazolo[4,3-a]pyridin-6-yl)ethyl)pyrrolidin-3-ol dihydrochloride]
7.55 | 6.12 | 8.04 | CC(C)(C)c1cccc2ccc(-c3nnc4ccc([C@@H](N5C[C@@H](N)[C@@H](O)C5)C(F)(F)F)cn34)nc12 [Example 130, (3S,4R)-4-amino-1-((R)-1-(3-(8-tert-butylquinolin-2-yl)-[1,2,4]triazolo[4,3-a]pyridin-6-yl)-2,2,2-trifluoroethyl)pyrrolidin-3-ol dihydrochloride]
7.77 | 6.10 | 8.66 | COc1cc2nc(-c3nnc4ccc([C@@H](N5C[C@@H](N)[C@@H](O)C5)C(F)(F)F)cn34)ccc2cc1F [Example 131, (3S,4R)-4-amino-1-((R)-2,2,2-trifluoro-1-(3-(6-fluoro-7-methoxyquinolin-2-yl)-[1,2,4]triazolo[4,3-a]pyridin-6-yl)ethyl)pyrrolidin-3-ol dihydrochloride]
7.80 | 6.27 | 8.35 | CC(C)Oc1cc(F)cc2ccc(-c3nnc4ccc([C@@H](N5C[C@@H](N)[C@@H](O)C5)C(F)(F)F)cn34)nc12 [Example 132, (3S,4R)-4-amino-1-((R)-2,2,2-trifluoro-1-(3-(6-fluoro-8-isopropoxyquinolin-2-yl)-[1,2,4]triazolo[4,3-a]pyridin-6-yl)ethyl)pyrrolidin-3-ol dihydrochloride]
9.22 | 7.32 | 9.42 | N[C@H]1CCN([C@H](c2ccc3nnc(-c4ccc5cc(F)c(OCC6CC6)cc5n4)n3c2)C(F)(F)F)C1 [Example 134, (S)-1-((R)-1-(3-(7-(cyclopropylmethoxy)-6-fluoroquinolin-2-yl)-[1,2,4]triazolo[4,3-a]pyridin-6-yl)-2,2,2-trifluoroethyl)pyrrolidin-3-amine hydrochloride]
8.52 | 7.09 | 8.85 | CC(C)Oc1cc(F)cc2ccc(-c3nnc4ccc([C@H](N5CC[C@H](N)C5)C(F)(F)F)cn34)nc12 [Example 135, (S)-1-((S)-2,2,2-trifluoro-1-(3-(6-fluoro-8-isopropoxyquinolin-2-yl)-[1,2,4]triazolo[4,3-a]pyridin-6-yl)ethyl)pyrrolidin-3-amine hydrochloride]
8.30 | 7.02 | 9.06 | COc1cc2nc(-c3nnc4ccc([C@H](N5CC[C@H](N)C5)C(F)(F)F)cn34)ccc2cc1F [Example 136, (S)-1-((S)-2,2,2-trifluoro-1-(3-(6-fluoro-7-methoxyquinolin-2-yl)-[1,2,4]triazolo[4,3-a]pyridin-6-yl)ethyl)pyrrolidin-3-amine hydrochloride]
7.47 | < 6.00 | 8.46 | COc1cccc2ccc(-c3nnc4ccc([C@@H](N5C[C@@H](N)[C@@H](O)C5)C(F)(F)F)cn34)nc12 [Example 137, (3S,4R)-4-amino-1-((R)-2,2,2-trifluoro-1-(3-(8-methoxyquinolin-2-yl)-[1,2,4]triazolo[4,3-a]pyridin-6-yl)ethyl)pyrrolidin-3-ol dihydrochloride]
8.02 | < 7.00 | 8.69 | COc1cc2nc(-c3nnc4ccc([C@@H](N5CC[C@H](N)C5)C(F)(F)F)cn34)ccc2cc1C [Example 138, (S)-1-((R)-2,2,2-trifluoro-1-(3-(7-methoxy-6-methylquinolin-2-yl)-[1,2,4]triazolo[4,3-a]pyridin-6-yl)ethyl)pyrrolidin-3-amine hydrochloride]
